# Experimental data reported in patent US20230339862A1, “NOVEL DIBENZOACRIDINIUM DERIVATIVES, THEIR PROCESS OF PREPARATION AND THEIR USE FOR TREATING VIRAL INFECTIONS” (priority 2020, published 2023).
# Read-outs that look alike come from different tables or passages of the source.
# Tests used:
# HIV-1 [1] = experiment: microbe, parasite or virus in culture; type: cell-based; conditions: for inhibition of HIV-1 infectivity: 10 µM
# HIV-1 [2] = conditions: MT4 cells, reported in 2014; read-out: IC50 HIV-1 infectivity; cited from earlier work
# HIV-1 [3] = conditions: primary infected cells versus MT4 infected cell lines; cited from earlier work
# Marburg virus = experiment: organism not typed; type: cell-based; conditions: read-out: Marburg virus inhibition (immunohistochemistry, infectious titer)
# Ebola Gabon virus = experiment: microbe, parasite or virus in culture; type: cell-based; conditions: Zaire ebolavirus, read-out: Ebola virus inhibition (immunohistochemistry, infectious titer)
compound,measurement,setting,value
c1ccc(-[n+]2c3ccc4ccccc4c3cc3c4ccccc4ccc32)cc1 [C038],inhibition of HIV-1 infectivity,HIV-1 [1],Complete inhibition
COc1ccc2c(ccc3c2cc2c4ccc(OC)cc4ccc2[n+]3-c2ccccc2)c1.[Cl-] [C031],activity on HIV-1 relative to BRACO-19,HIV-1 [1],at least five time more active
same,inhibition of HIV-1 infectivity,HIV-1 [1],Complete inhibition
COc1ccc2c(ccc3c2cc2c4ccc(OC)cc4ccc2[n+]3-c2ccc([N+](=O)[O-])cc2)c1 [C0370],activity on HIV-1 relative to BRACO-19,HIV-1 [1],at least five time more active
same,selectivity index (SI),HIV-1 [1],17
same,inhibition of HIV-1 infectivity,HIV-1 [1],Complete inhibition
CN(C)c1ccc(Nc2c3ccc(NC(=O)CCN4CCCC4)cc3nc3cc(NC(=O)CCN4CCCC4)ccc23)cc1 [Braco19],IC50,"HIV-1 [1]; Human immunodeficiency virus 1, HeLaP4, read-out: IC50 HIV-1 infectivity",~8 µM
same,IC50,HIV-1 [2],~6 µM
same,antiviral effect in primary infected cells,HIV-1 [3],less efficient with respect to MT4 infected cell lines
c1ccc(C[n+]2c3ccc4ccccc4c3cc3c4ccccc4ccc32)cc1 [CO39],inhibition at 5 µM,Marburg virus; 5 μM,30%
same,inhibition at 20 µM,Marburg virus; 20 μM,~100%
same,inhibition at 5 µM,Ebola Gabon virus; 5 μM,~60%
same,inhibition at 20 µM,Ebola Gabon virus; 20 μM,~100%
